Holding throughout (format): physicochemical
The nature of series [1]: polarographic oxidation potential (Example 31). The note with it: 0.5 m.mole/liter; methanol/acetic acid; 35° C. As for the experimental part: platinum counter-electrode and calomel electrode with filling by a saturated aqueous solution of lithium chloride.
The measurements were carried out in the following solvent:
90 parts of an 0.1 M solution of lithium perchlorate in methanol, 10 parts of a 0.1 M solution of perchloric acid in acetic acid. square voltage superimposed with constant pulses of +10 millivolts, initial potential: 500 millivolts, scanning voltage: 1000 millivolts in the anode direction, oxidation at the vitreous carbon electrode (speed of rotation: 2000 r.p.m.)

Series [2] is described as follows: polarographic study of the oxidation potential (Example 30). The conditions noted are these: acetonitrile, lithium perchlorate; calomel electrode; in V (unit assumed). From the text: 261. Polarographic study of the oxidation potential […]
reference electrode: a calomel electrode which contains, as junction liquid, a saturated solution of anhydrous lithium perchlorate working electrode: rotating electrode of vitreous carbon (2500 r.p.m.) counter-electrode: platinum. acetonitrile, having a water content smaller than 0.1% and not presenting any polarographic waves between -2.5 volts and +2.5 volts.
0.1 M solution of lithium perchlorate in acetonitrile, treated and preserved on a molecular screen of 4 A. […]
exploration amplitude: 0 to 2 V exploration speed: 10 mV/sec.

Series [3] is described as follows: sublimation at 160° C. for 6 hours under nitrogen. The conditions noted are these: for % of sublimed product: 160° C., 6 hours, nitrogen; for sublimation: of the quantity of product being used. The protocol:
A test sample of about 130 mg of the product to be investigated is introduced into a 100 cc beaker. The latter is placed in a 250 cc reactor. The temperature is kept at 160° C. by means of a thermostatically controlled oil bath for 6 hours, the atmosphere of the reactor being inert (nitrogen) in order to avoid the oxidation of the 1,4-dihydropyridine into pyridine, which is more sublimable.
For each dihydropyridine derivative which is investigated, the result is expressed as a percentage of sublimed product relatively to the quantity being used.

Series [4] can be described thus: migration of stabiliser from PVC bottles into water at 50° C. The conditions noted are these: water 50° C. As for the experimental part:
2.2--Study of the migration
The migration or the extractability of the stabiliser from the PVC compound under the effect of various liquids (and particularly water) stored in a plastic container is of essential importance for the use of these stabilisers in the field of food packagings.
(§1) The technique as regards extraction was the following: using the formula which is given below, a batch of bottles (volume 1 liter, diameter 70 mm, height.perspectiveto.230 mm) was prepared, the said bottles being filled with a liquid simulating the foods. […] The migration of the stabiliser was judged by dosage of the pyridine present in the extractum, using the dosage method which is later described. This pyridine obviously represents the oxidised form of the extracted 1,4-dihydropyridine.
The investigation was particularly developed for water at 50° C. over a period of 2 months, because it represents the important problem regarding the packaging of mineral waters.
Formula for the manufacture of bottles
The S L 2016 is a solution of zinc 2-ethyl hexanoate in a mixture of aromatic hydrocarbons boiling from 158° to 184° C.
(§2) The stabilisers are measured out in the form of their oxidation product (pyridine).
(§3) The oxidation is made quantitative by adding a few drops of iodine to the solution. The latter is then extracted with chloroform and the chloroform is evaporated to a small residual volume. The solution obtained is then subjected to thin-film chromatography, by comparison with solutions of known concentration of the desired pyridines.
(§4) The sensitivity threshold of this technique is 5 μg/liter.

Series [5] is described as follows: migration of stabiliser from PVC into solutions or solvents simulating foods at 50° C. As for the experimental part:
as §1, §2, §3, §4
For justifying the possibility of using the dihydropyridines (I) having a radical R comprising from 9 to 22 carbon atoms in applications concerned with food packaging, other than those applications relating to mineral waters, the extractability of the dihydropyridines by several solutions or solvents having the following composition, by weight, was investigated:
(a) water-sodium chloride: 97-3
(b) water-saccharose: 90-10
(c) water-sodium chloride-acetic acid: 98.5-0.5-1
(d) water-citric acid (solution at pH=5): 98-2
(e) water-acetic acid: 97-3
(f) water-acetic acid: 90-10
(h) water-acetic acid: 50-50

Values joined by “and” are separate entries in the source; they are usually repeats but may differ in a detail not shown here. Equal entries are not always repeated.

Consider `Cc1cc(C(C)(C)C)c(O)c(C(C)(C)C)c1` [BHT, Di-tert.-2,6-butyl-4-methyl phenol, reference compound], for which the figures for the Oxidation potential in series [1] and in series [2] were 1163 millivolts and 1.11 ± 0.02, respectively.

As to `CC1=C(C(=O)OC(C)C)CC(C(=O)OC(C)C)=C(C)N1` [L.28506], the “% of sublimed product” value in series [3] is given as 98.1%.

Regarding `CCCCCCCCCCOC(=O)C1=C(C)NC(C)=C(C(=O)OCCCCCCCCCC)C1` [L.28591], in series [3], the “% of sublimed product” value stood at 1.7%.

Consider `CCCCCCCCCCCCCCCCCCCCCCOC(=O)C1=C(C)NC(C)=C(C(=O)OCCCCCCCCCCCCCCCCCCCCCC)C1` [L.28601], for which the “% of sublimed product” value in series [3] worked out at 0.4%.

As for `CCCCCCCCOC(=O)C1=C(C)NC(C)=C(C(=O)OCCCCCCCC)C1` [L.28502], in series [3], the “% of sublimed product” value stood at 7.2% and the sublimation is recorded as 7%.

Turning to `CCCOC(=O)C1=C(C)NC(C)=C(C(=O)OCCC)C1` [L.28509], in series [3], the “% of sublimed product” value is given as 79.1%.

`Oc1ccc(O)cc1` [Hydroquinone]: in series [2], the Oxidation potential was found to be 0.83 ± 0.01.

In the case of `CCCCOC(=O)C1=C(C)NC(C)=C(C(=O)OCCCC)C1` [L.28552, 2,6-Dimethyl-3,5-dicarbobutoxy-1,4-dihydropyridine], the Migration in series [4] (0.15 pct, 1 month) was found to be 90 µg/L; in series [4] (0.15 pct, 2 months), 100 µg/L; in series [4] (0.15 pct, 10 days) it was 15 µg/L; in series [4] (0.15 pct, 20 days) it was 40 µg/L; in series [4] (0.30 pct, 1 month), 130 µg/L; in series [4] (0.30 pct, 2 months), 130 µg/L. The Migration in series [4] (0.30 pct, 10 days) was 80 µg/L; in series [4] (0.30 pct, 20 days), 120 µg/L; in series [5] (H2O/NaCl (97:3), 0.3, 1 month), 80 µg/L; in series [5] (H2O/NaCl (97:3), 0.3, 2 months), 100 µg/L. The “% of sublimed product” value in series [3] is listed as 39.2%.

With `CCOC(=O)C1=C(C)NC(C)=C(C(=O)OCC)C1` [L.28501, 2,6-Dimethyl-3,5-dicarboethoxy-1,4-dihydropyridine], the Migration in series [4] (0.15 pct, 1 month) was 100 µg/L; in series [4] (0.15 pct, 2 months), 100 µg/L; in series [4] (0.15 pct, 10 days) it was 20 µg/L; in series [4] (0.15 pct, 20 days), 50 µg/L; in series [4] (0.30 pct, 1 month) it was 150 µg/L; in series [4] (0.30 pct, 2 months), 150 µg/L. Besides, the Migration in series [4] (0.30 pct, 10 days) was 90 µg/L; in series [4] (0.30 pct, 20 days), 120 µg/L; in series [5] (H2O/NaCl (97:3), 0.3, 1 month) it was 120 µg/L; in series [5] (H2O/NaCl (97:3), 0.3, 2 months), 150 µg/L. In series [2], this compound returned an Oxidation potential of 0.73 ± 0.01. In addition, in series [3], the “% of sublimed product” value is 82.9%.

As for `COc1ccc(O)cc1` [4-Methoxy phenol], the Oxidation potential in series [2] turned out to be 0.89 ± 0.01.

Turning to `c1ccc(-c2cc3ccccc3[nH]2)cc1` [2-phenyl indole, reference compound], the Migration in series [4] (0.30 pct, 1 month, listed as Control) is 100 µg/L and 110 µg/L and 120 µg/L; in series [4] (0.30 pct, 2 months, listed as Control), 100 µg/L and 110 µg/L and 130 µg/L; in series [4] (0.30 pct, 10 days, listed as Control), 75 µg/L and 70 µg/L and 80 µg/L; in series [4] (0.30 pct, 20 days, listed as Control) it was 90 µg/L and 100 µg/L; in series [5] (H2O/NaCl (97:3), 0.3, 1 month), 90 µg/L; in series [5] (H2O/NaCl (97:3), 0.3, 2 months), 140 µg/L. The “% of sublimed product” value in series [3] is 62%. Moreover, in series [3], the sublimation was 62%.

Consider `CCCCCCCCCCCCCCCCCCOC(=O)C1=C(C)NC(C)=C(C(=O)OCCCCCCCCCCCCCCCCCC)C1` [L.28599, 2,6-Dimethyl-3,5-dicarbooctadecyloxy-1,4-dihydropyridine], for which the Migration in series [4] (0.15 pct, 1 month) is below 5 µg/L; in series [4] (0.15 pct, 2 months), below 5 µg/L; in series [4] (0.15 pct, 10 days), below 5 µg/L; in series [4] (0.15 pct, 20 days), below 5 µg/L; in series [4] (0.30 pct, 1 month) it was below 5 µg/L; in series [4] (0.30 pct, 2 months) it was below 5 µg/L. The Migration in series [4] (0.30 pct, 10 days) is below 5 µg/L; in series [4] (0.30 pct, 20 days), below 5 µg/L; in series [5] (H2O/NaCl (97:3), 0.3, 1 month), below 5 µg/L; in series [5] (H2O/NaCl (97:3), 0.3, 2 months) it was below 5 µg/L. In addition, the “% of sublimed product” value in series [3] came to 1.2%.

With `CCCCCCCC/C=C\CCCCCCCCOC(=O)C1=C(C)NC(C)=C(C(=O)OCCCCCCCC/C=C\CCCCCCCC)C1` [L.28602], the Oxidation potential in series [1] came to 808 millivolts.

The compound `CCCCCCCCCCCCOC(=O)C1=C(C)NC(C)=C(C(=O)OCCCCCCCCCCCC)C1` [L.28507, 2,6-Dimethyl-3,5-dicarbododecyloxy-1,4-dihydropyridine] had an Oxidation potential in series [1] of 783 millivolts. Also, the Migration in series [4] (0.15 pct, 1 month) was below 5 µg/L; in series [4] (0.15 pct, 2 months) it was below 5 µg/L; in series [4] (0.15 pct, 10 days), below 5 µg/L; in series [4] (0.15 pct, 20 days) it was below 5 µg/L; in series [4] (0.30 pct, 1 month), below 5 µg/L; in series [4] (0.30 pct, 2 months) it was below 5 µg/L. Besides, the Migration was below 5 µg/L in series [4] (0.30 pct, 10 days); below 5 µg/L in series [4] (0.30 pct, 20 days); below 5 µg/L in series [5] (H2O/NaCl (97:3), 0.3, 1 month); below 5 µg/L in series [5] (H2O/NaCl (97:3), 0.3, 2 months); 120 µg/L in series [5] (Heptane, 0.3 pcr, after 36 h); 150 µg/L in series [5] (Heptane, 0.3 pcr, after 84 h). In addition, the Migration is 50 µg/L in series [5] (Water/C2H5OH (50:50), 0.3, 1 month); below 5 µg/L in series [5] (Water/C2H5OH (85:15), 0.3, 1 month); below 5 µg/L in series [5] (Water/C2H5OH (85:15), 0.3, 2 months); 25 µg/L in series [5] (Water/CH3COOH (50:50), 0.3, 1 month); below 5 µg/L in series [5] (Water/CH3COOH (90:10), 0.3, 1 month); below 5 µg/L in series [5] (Water/CH3COOH (90:10), 0.3, 2 months). In addition, the Migration is below 5 µg/L in series [5] (Water/CH3COOH (97:3), 0.3, 1 month); below 5 µg/L in series [5] (Water/CH3COOH (97:3), 0.3, 2 months); below 5 µg/L in series [5] (Water/NaCl/CH3COOH (98,5:0,5:1), 0.3, 1 month); below 5 µg/L in series [5] (Water/NaCl/CH3COOH (98,5:0,5:1), 0.3, 2 months); below 5 µg/L in series [5] (Water/Sacchrose (90:10), 0.3, 1 month); below 5 µg/L in series [5] (Water/Sacchrose (90:10), 0.3, 2 months). For the same compound, the Migration was below 5 µg/L in series [5] (Water/citric acid (98:2), pH 5, 0.3, 1 month) and below 5 µg/L in series [5] (Water/citric acid (98:2), pH 5, 0.3, 2 months). The “% of sublimed product” value in series [3] is reported as 1.7%.

In series [1], `CCCCCCCCCCCCCCOC(=O)C1=C(C)NC(C)=C(C(=O)OCCCCCCCCCCCCCC)C1` [L.28590, 2,6-Dimethyl-3,5-dicarbotetradecyloxy-1,4-dihydropyridine] returned an Oxidation potential of 732 millivolts. Moreover, the Migration in series [4] (0.15 pct, 1 month) was below 5 µg/L; in series [4] (0.15 pct, 2 months), below 5 µg/L; in series [4] (0.15 pct, 10 days), below 5 µg/L; in series [4] (0.15 pct, 20 days), below 5 µg/L; in series [4] (0.30 pct, 1 month) it was below 5 µg/L; in series [4] (0.30 pct, 2 months) it was below 5 µg/L. The Migration was below 5 µg/L in series [4] (0.30 pct, 10 days); below 5 µg/L in series [4] (0.30 pct, 20 days); below 5 µg/L in series [5] (H2O/NaCl (97:3), 0.3, 1 month); below 5 µg/L in series [5] (H2O/NaCl (97:3), 0.3, 2 months). The “% of sublimed product” value in series [3] is listed as 0.1%.

These data come from patent US4209439A, “Stabilization of vinyl resins” (priority 1977, dated 1980).
